Structures can show the parent of a compound that is named as a salt.
Biological target: recombinant human CCR5 receptor (Homo sapiens, UniProt P51681)
Assay: MIP-1α radioligand binding assay (scintillation proximity), CHO cell membranes
Conditions: Pic50, negative log (base 10) of IC50 (M); displacement of 0.1 nM iodinated MIP-1α; CHO membranes with recombinant human CCR5; average if tested more than once
Method: The ability of compounds to inhibit the binding of MIP-1 α was assessed by an in vitro radioligand binding assay. Membranes were prepared from Chinese hamster ovary cells which expressed the recombinant human CCR5 receptor. These membranes were incubated with 0.1 nM iodinated MIP-1α, scintillation proximity beads and various concentrations of the compounds of the invention in 96-well plates. The amount of iodinated MIP-1α bound to the receptor was determined by scintillation counting.
In Table II the results are presented as Pic50 values. […] (that is 1×10^−6 M) gives a Pic50 of 6.

recombinant human CCR5 receptor, sequence (P51681 whole entry): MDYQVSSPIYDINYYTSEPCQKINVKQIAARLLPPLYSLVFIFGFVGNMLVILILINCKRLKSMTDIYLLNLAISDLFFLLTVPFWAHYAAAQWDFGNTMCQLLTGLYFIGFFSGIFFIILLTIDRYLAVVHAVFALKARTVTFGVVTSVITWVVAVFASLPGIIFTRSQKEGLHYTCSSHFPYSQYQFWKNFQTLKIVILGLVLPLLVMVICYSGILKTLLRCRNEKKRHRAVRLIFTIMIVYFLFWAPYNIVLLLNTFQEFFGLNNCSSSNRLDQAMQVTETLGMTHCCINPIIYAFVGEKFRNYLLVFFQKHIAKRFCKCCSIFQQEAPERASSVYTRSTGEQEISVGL

| Compound | IC50 [M] |
| --- | --- |
| CCN(C(=O)Cc1ccc(S(C)(=O)=O)cc1)C1CCN(CC[C@@H](c2ccccc2)c2ccc(S(C)(=O)=O)cc2)CC1 [Compound No. 50, (S)-N-[1-{3-phenyl-3-(4-methanesulfonylphenyl)propyl}-4-piperidinyl]-N-ethyl-4 methanesulfonylphenylacetamide] | 8.13e-10 |
| CCN(C(=O)Cc1ccc(S(C)(=O)=O)cc1)C1CCN(CC[C@H](c2ccc(S(C)(=O)=O)cc2)c2ccc(F)c(F)c2)CC1 [Compound No. 54, (R)-N-[1-{3-(3,4-fluorophenyl)-3-(4-methanesulfonylphenyl)propyl}-4-piperidinyl]-N-ethyl-4-methanesulfonylphenylacetamide hydrochloride] | 2.14e-08 |
| CCN(C(=O)Cc1ccc(S(C)(=O)=O)cc1)C1CCN(CC[C@H](c2ccc(S(C)(=O)=O)cc2)c2cccc(F)c2)CC1 [compound 51] | 3.72e-10 |

Same assay, conditions: negative log (base 10) of IC50 (M); displacement of 0.1 nM iodinated MIP-1α; CHO membranes with recombinant human CCR5; average if tested more than once

| Pic50 | Compound |
| --- | --- |
| 7.05 | CCN(C(=O)Cc1ccc(S(C)(=O)=O)cc1)C1CCN(CCC(c2ccc(NC(=O)OC(C)(C)C)cc2)c2cccc(F)c2)CC1 (stereo not shown) [Compound No. 43, N-[1-(3-[3-fluorophenyl]-3-[4-Boc-aminophenyl]propyl)-piperidin-4-yl]-N-ethyl-4-methanesulfonylphenylacetamide] |

Same assay, conditions: negative log (base 10) of IC50 (M); displacement of 0.1 nM iodinated MIP-1α; CHO membranes with recombinant human CCR5; average if tested more than once; read-out: Pic50 (converted)

| Compound | IC50 [M] |
| --- | --- |
| CCN(C(=O)Cc1ccc(S(C)(=O)=O)cc1)C1CCN(CCC(c2ccccc2)c2ccc(SC)cc2)CC1 (stereo not shown) [Compound No. 41, N-[1-(3-phenyl-3-[4-methanethiophenyl]propyl)-piperidin-4-yl]-N-ethyl-4-methanesulfonylphenylacetamide] | 1.17e-08 |
| CCN(C(=O)Cc1ccc(S(C)(=O)=O)cc1)C1CCN(CCC(c2ccccc2)c2ccc(NS(=O)(=O)c3ccccc3)cc2)CC1 (stereo not shown) [compound 28] | 8.51e-07 |
| CCN(C(=O)Cc1ccc(S(C)(=O)=O)cc1)C1CCN(CCC(c2ccccc2)c2ccc(NC(=O)NC(C)C)cc2)CC1 (stereo not shown) [compound 42] | 1.32e-08 |
| CCN(C(=O)Cc1ccc(S(C)(=O)=O)cc1)C1CCN(CCC(c2ccc(NC(=O)c3ccc(S(C)(=O)=O)cc3)cc2)c2cccc(F)c2)CC1 (stereo not shown) [compound 47] | 3.47e-08 |
| CCN(C(=O)Cc1ccc(S(C)(=O)=O)cc1)C1CCN(CCC(c2ccccc2)c2ccc([S+](C)[O-])cc2)CC1 (stereo not shown) [compound 75] | 1.38e-08 |

More lines, now with the values ahead:

| IC50 [M] | Compound |
| --- | --- |
| 1.05e-07 | CCN(C(=O)Cc1ccc(S(C)(=O)=O)cc1)C1CCN(CCC(c2ccc(N)cc2)c2cccc(F)c2)CC1 (stereo not shown) [Compound No. 44, N-[1-(3-[3-fluorophenyl]-3-[4-aminophenyl]propyl)-piperidin-4-yl]-N-ethyl-4-methanesulfonylphenylacetamide hydrochloride] |
| 6.17e-09 | CCN(C(=O)Cc1ccc(S(C)(=O)=O)cc1)C1CCN(CCC(c2ccc(NS(C)(=O)=O)cc2)c2cccc(F)c2)CC1 (stereo not shown) [Compound No. 49] |
| 3.63e-09 | CCN(C(=O)Cc1ccc(S(C)(=O)=O)cc1)C1CCN(CCC(c2ccc(NC(C)=O)cc2)c2cccc(F)c2)CC1 (stereo not shown) [compound 45] |
| 9.12e-09 | CCN(C(=O)Cc1ccc(S(C)(=O)=O)cc1)C1CCN(CCC(c2ccc(NS(C)(=O)=O)cc2)c2cccc(F)c2)CC1 (stereo not shown) [compound 46] |

— patent publication US20050014788A1, “Piperidine derivatives and their use as modulators of chemokine receptor activity (especially ccr5)” (priority 2001, published 2005)
